Data taken from article PMC3602354 (Chemical research in toxicology, 2013).
Where “and” joins values, the source holds several entries; their conditions need not be identical. Equal entries are not always repeated.

Tests used:
in vitro [1] = format: in vitro ADME, mouse; details: mouse, pH 7.4
[2] = system: WT mouse nasal mucosa microsomes; assay: in vitro; format: in vitro ADME; details: GS-DCBN formation; WT mouse nasal mucosa microsomes; mean ± SE, n=3
in vitro [3] = format: in vitro ADME, mouse; details: Cyp2a5-null, mouse, pH 7.4
[4] = system: Cyp2a5-null mouse nasal mucosa microsomes; assay: in vitro; format: in vitro ADME
in vitro [5] = format: in vitro ADME, human; details: both, human
[6] = system: human fetal nasal mucosa microsomes; assay: in vitro; format: in vitro ADME; details: GS-DCBN formation; human fetal nasal mucosa microsomes; mean ± SE, n=3
nasal mucosa [7] = assay: Histopathological analysis of nasal mucosa in DCBN-treated WT mice; format: in vivo, mouse
nasal mucosa [8] = assay: Histopathological analysis of nasal mucosa in DCBN-treated Cyp2a5-null mice; format: in vivo, mouse; details: DCBN 10 mg/kg single i.p., 24 h after treatment
[9] = Cyp2a5-null vs WT nasal mucosa microsomes

Question: With N#Cc1c(Cl)cccc1Cl [DCBN, 2,6-dichlorobenzonitrile] as the molecule, how does the Km (in vitro [1]) read?
Answer: 0.43 ± 0.04 µM

Question: And the Vmax [2]?
Answer: 1050 ± 30 pmol/min/mg protein

Question: What about the Km (in vitro [3]) of the same molecule?
Answer: 4.2 ± 0.6 µM

Question: What about the “decrease in apparent Vmax compared to WT mice” value [4, 9] of the same molecule?
Answer: ~ 4 fold

Question: And the “increase in apparent Km compared to WT mice” value [4, 9]?
Answer: ~ 10 fold

Question: What about the “reduction of efficiency for GS-DCBN formation compared to WT mice” value [4, 9] of the same molecule?
Answer: ~ 40 fold

Question: What about the Vmax ([4]; GS-DCBN formation, Cyp2a5-null mouse nasal mucosa microsomes, mean ± SE, n=3) of the same molecule?
Answer: 253 ± 12 pmol/min/mg protein

Question: And the Km at 60 min (in vitro [5])?
Answer: 0.45 ± 0.1 µM

Question: What about the Vmax [6] of the same molecule?
Answer: 0.14 pmol/min/mg protein and 0.14 ± 0.01 pmol/min/mg protein

Question: What about the “histopathology of nasal mucosa” value (nasal mucosa [7]; DCBN 10 mg/kg single i.p., 24 h after treatment) of the same molecule?
Answer: moderate injury to the nasal mucosa

Question: What about the “histopathology of nasal mucosa” value (nasal mucosa [7]; DCBN 4 × 1 mg/kg s.c., 1.5-h intervals, 24 h after last treatment) of the same molecule?
Answer: essentially normal morphology

Question: And the “histopathology of nasal mucosa” value (nasal mucosa [8])?
Answer: essentially normal olfactory epithelium and BG
